The target of the first test is T1, Perforin-1 (Homo sapiens, UniProt P14222).
T1 sequence (P14222 whole entry): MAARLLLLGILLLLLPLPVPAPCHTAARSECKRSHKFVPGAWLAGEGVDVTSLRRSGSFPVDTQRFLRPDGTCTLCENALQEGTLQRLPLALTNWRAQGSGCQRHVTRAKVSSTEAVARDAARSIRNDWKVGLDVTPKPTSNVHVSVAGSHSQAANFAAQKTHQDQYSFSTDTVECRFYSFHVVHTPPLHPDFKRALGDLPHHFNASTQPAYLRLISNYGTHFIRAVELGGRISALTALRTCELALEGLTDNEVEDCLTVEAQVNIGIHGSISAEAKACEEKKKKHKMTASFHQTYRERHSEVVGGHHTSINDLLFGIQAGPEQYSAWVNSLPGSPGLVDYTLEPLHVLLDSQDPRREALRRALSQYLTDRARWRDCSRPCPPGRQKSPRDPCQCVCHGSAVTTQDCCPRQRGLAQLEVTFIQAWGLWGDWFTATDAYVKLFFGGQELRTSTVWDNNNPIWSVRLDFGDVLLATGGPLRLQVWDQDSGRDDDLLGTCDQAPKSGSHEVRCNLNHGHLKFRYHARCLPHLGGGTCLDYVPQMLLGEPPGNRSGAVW
The test can be described thus: Inhibition of recombinant perforin-mediated lysis of Jurkat cells assessed as [51Cr] release preincubated with perforin for 30 mins followed by incubation with [51Cr]-labeled Jurkat cells by gamma counting.
Turning to `O=C(NCC=Cc1[nH]c(=S)[nH]c1O)c1ccc2c(c1)COC2=O`, the concentration for half-maximal inhibition (IC50) is greater than 20000 nM.

Target in another test: not listed separately
The test can be described thus: Inhibition of recombinant perforin-mediated lysis of Jurkat cells assessed as [51Cr] release preincubated with perforin for 30 mins followed by incubation with [51Cr]-labeled Jurkat cells by gamma counting.
For `O=C1NC(=S)NC1=Cc1ccc(-c2ccc3c(c2)COC3=O)s1`, the IC50 is 780 nM.

With `O=C1NC(=S)NC1=Cc1ccc(-c2ccc3c(c2)COC3=O)nc1`, the 50% inhibitory concentration (IC50) turned out to be 2000 nM.

As to `O=C1NC(=S)NC1=Cc1ccc(-c2ccc3c(c2)COC3=O)[nH]1`, the IC50 worked out at 2450 nM.

For the molecule `O=C1NC(=S)NC1=Cc1nc(-c2ccc3c(c2)COC3=O)cs1`, the half-inhibitory concentration (IC50) is 1410 nM.

In the case of `O=C1NC(=S)NC1=Cc1csc(-c2ccc3c(c2)COC3=O)n1`, the IC50 worked out at 340 nM.

For `O=C1NC(=S)NC1=Cc1cc(-c2ccc3c(c2)COC3=O)ns1`, the IC50 came out at 1440 nM.

With `O=C1NC(=S)NC1=Cc1cc2cc(-c3ccc4c(c3)COC4=O)ccc2o1`, the IC50 was determined as 510 nM.

Take `O=C1NC(=S)NC1=Cc1cc2cc(-c3ccc4c(c3)COC4=O)ccc2[nH]1`: the IC50 came out at 820 nM.

Regarding `O=C1NC(=S)NC1=Cc1ccc2cc(-c3ccc4c(c3)COC4=O)ccc2n1`, the half-maximal inhibitory concentration (IC50) was determined as 470 nM.

On to `O=C1OCc2cc(-c3cccs3)ccc21`, for which the IC50 is greater than 20000 nM.

`CC(=O)c1ccc(-c2ccc3c(c2)COC3=O)s1`: the IC50 was greater than 20000 nM.

Take `O=Cc1ccc(-c2ccc3c(c2)COC3=O)s1`: the 50% inhibitory concentration (IC50) was determined as 6310 nM.

With `O=C(O)Cc1ccc(-c2ccc3c(c2)COC3=O)s1`, the concentration for half-maximal inhibition (IC50) was greater than 20000 nM.

Take `COC(=O)Cc1ccc(-c2ccc3c(c2)COC3=O)s1`: the concentration for half-maximal inhibition (IC50) is greater than 20000 nM.

As to `O=C1NC(=S)SC1=Cc1ccc(-c2ccc3c(c2)COC3=O)s1`, the IC50 is greater than 10000 nM.

`O=C1NC(=O)C(=Cc2ccc(-c3ccc4c(c3)COC4=O)s2)S1`: the IC50 was found to be 1120 nM.

As to `O=C1NC(=O)C(=Cc2ccc(-c3ccc4c(c3)COC4=O)s2)C(=O)N1`, the IC50 was 800 nM.

As to `O=C1NC(=S)NC(=O)C1=Cc1ccc(-c2ccc3c(c2)COC3=O)s1`, the IC50 was determined as 400 nM.

As to `CN1C(=O)C(=Cc2ccc(-c3ccc4c(c3)COC4=O)s2)C(=O)N(C)C1=O`, the IC50 is 3960 nM.

Consider `O=C1OCc2cc(-c3ccc(-c4cnco4)s3)ccc21`, for which the concentration for half-maximal inhibition (IC50) was determined as 3180 nM.

Take `O=C1NCCCC1=Cc1ccc(-c2ccc3c(c2)COC3=O)s1`: the concentration for half-maximal inhibition (IC50) was 15200 nM.

In general, IC50 refers to the concentration needed to halve the response being measured.

(Values after BindingDB's records for doi:10.1016/j.bmc.2011.12.011 (University of Auckland, 2012).)
